Laboratory results: ChEMBL document CHEMBL1154291, “Synthesis and SAR of 2-phenyl-1-sulfonylaminocyclopropane carboxylates as ADAMTS-5 (Aggrecanase-2) inhibitors” (Bioorg Med Chem Lett, 2009)

target: T1, A disintegrin and metalloproteinase with thrombospondin motifs 5 (Homo sapiens) (UniProt Q9UNA0); assay: Inhibition of ADAMTS5 at 1 uM; details: not given
T1 sequence (whole entry): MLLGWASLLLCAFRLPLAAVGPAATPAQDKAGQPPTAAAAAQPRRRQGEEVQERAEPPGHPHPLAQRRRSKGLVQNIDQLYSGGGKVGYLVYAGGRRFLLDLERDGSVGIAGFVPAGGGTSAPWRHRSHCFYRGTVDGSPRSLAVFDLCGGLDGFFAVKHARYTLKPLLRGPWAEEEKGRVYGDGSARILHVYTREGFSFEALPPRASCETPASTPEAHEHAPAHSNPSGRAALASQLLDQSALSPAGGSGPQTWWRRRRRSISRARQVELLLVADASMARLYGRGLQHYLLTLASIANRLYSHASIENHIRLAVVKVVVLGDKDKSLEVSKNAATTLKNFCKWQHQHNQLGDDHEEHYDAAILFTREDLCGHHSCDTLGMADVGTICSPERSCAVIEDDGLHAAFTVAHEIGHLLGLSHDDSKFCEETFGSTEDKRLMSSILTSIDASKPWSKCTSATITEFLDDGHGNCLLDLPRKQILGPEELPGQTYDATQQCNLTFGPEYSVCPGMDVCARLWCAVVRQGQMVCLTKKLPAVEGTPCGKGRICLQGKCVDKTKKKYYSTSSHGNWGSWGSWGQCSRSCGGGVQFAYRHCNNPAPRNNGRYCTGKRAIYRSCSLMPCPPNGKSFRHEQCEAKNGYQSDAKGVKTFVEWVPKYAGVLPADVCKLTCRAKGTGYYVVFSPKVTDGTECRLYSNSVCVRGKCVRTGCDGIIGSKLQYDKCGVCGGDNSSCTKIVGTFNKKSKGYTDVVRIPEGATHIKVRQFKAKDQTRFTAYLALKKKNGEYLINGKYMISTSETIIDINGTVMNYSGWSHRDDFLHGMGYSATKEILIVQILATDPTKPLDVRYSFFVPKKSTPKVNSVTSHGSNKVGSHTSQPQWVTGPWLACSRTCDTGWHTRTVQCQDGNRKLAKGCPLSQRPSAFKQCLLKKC

inhibition [%]	SMILES
-0.84	O=C(O)[C@]1(NS(=O)(=O)c2ccc(-n3cc(Cl)cn3)s2)CC[C@@H]1c1ccccc1 (racemic)
25	O=C(O)[C@]1(NS(=O)(=O)c2ccc(-n3cc(Cl)cn3)s2)C[C@@H]1Cc1ccccc1 (racemic)

The next lines start with the compound.

SMILES	inhibition [%]
O=C(O)[C@]1(NS(=O)(=O)c2ccc(-c3ccccc3Cl)s2)C[C@@H]1c1ccccc1	48
CC1(C)C[C@@]1(NS(=O)(=O)c1ccc(-n2cc(Cl)cn2)s1)C(=O)O (racemic)	19.6
C[C@H]1C[C@@]1(NS(=O)(=O)c1ccc(-n2cc(Cl)cn2)s1)C(=O)O (racemic)	3.5

target: T2, A disintegrin and metalloproteinase with thrombospondin motifs 5 (Homo sapiens, UniProt Q9UNA0); assay: Inhibition of ADAMTS5; details: not given
T2 sequence (Q9UNA0 whole entry): T1 sequence (whole entry)

IC50 [nM]	SMILES
100	O=C(O)[C@]1(NS(=O)(=O)c2ccc(-c3ccc(Cl)cn3)s2)C[C@@H]1c1ccccc1
80	O=C(O)[C@]1(NS(=O)(=O)c2ccc(-n3cc(Cl)cn3)s2)C[C@@H]1c1ccccc1
94	O=C(O)[C@]1(NS(=O)(=O)c2ccc(-c3cccc(Cl)c3)s2)C[C@@H]1c1ccccc1
21	C[C@@H]1[C@H](c2ccccc2)[C@]1(NS(=O)(=O)c1ccc(-c2ccc(Cl)cc2)s1)C(=O)O
32	C[C@]1(c2ccccc2)C[C@@]1(NS(=O)(=O)c1ccc(-n2cc(Cl)cn2)s1)C(=O)O
210	O=C(O)[C@@]1(NS(=O)(=O)c2ccc(-c3ccc(Cl)cc3)cc2)C[C@H]1c1ccccc1
84	O=C(O)[C@]1(NS(=O)(=O)c2ccc(-c3ccc(Cl)cc3)cc2)C[C@@H]1c1ccccc1
120	C[C@H]1[C@H](c2ccccc2)[C@]1(NS(=O)(=O)c1ccc(-c2ccc(Cl)cc2)s1)C(=O)O (racemic)
7.4	C[C@@H]1[C@H](c2ccccc2)[C@]1(NS(=O)(=O)c1ccc(-n2cc(Cl)cn2)s1)C(=O)O (racemic)

Continued, compound first:

SMILES	IC50 [nM]
O=C(O)[C@]1(NS(=O)(=O)c2ccc(-c3ccc(Cl)cc3)s2)C[C@@H]1c1ccccc1	60
C[C@@H]1[C@H](C)[C@]1(NS(=O)(=O)c1ccc(-n2cc(Cl)cn2)s1)C(=O)O	800
C[C@]1(c2ccccc2)C[C@@]1(NS(=O)(=O)c1ccc(-c2ccc(Cl)cc2)s1)C(=O)O	10
CC(C)[C@H]1C[C@@]1(NS(=O)(=O)c1ccc(-n2cc(Cl)cn2)s1)C(=O)O (racemic)	770
O=C(O)[C@]1(NS(=O)(=O)c2ccc(-n3cc(Cl)cn3)s2)C[C@@H]1C1CCCCC1 (racemic)	360

target: T1, A disintegrin and metalloproteinase with thrombospondin motifs 5 (Homo sapiens); assay: Inhibition of ADAMTS5 at 0.3 uM; details: not given

inhibition [%]	SMILES
18	COC(=O)c1cn(CCN([C@@]2(C(=O)O)C[C@@H]2c2ccccc2)S(=O)(=O)c2ccc(-c3ccc(Cl)cc3)cc2)cn1

target: T3, Interstitial collagenase (Homo sapiens, UniProt P03956); assay: Inhibition of MMP-1; details: not given
T3 sequence (P03956 whole entry): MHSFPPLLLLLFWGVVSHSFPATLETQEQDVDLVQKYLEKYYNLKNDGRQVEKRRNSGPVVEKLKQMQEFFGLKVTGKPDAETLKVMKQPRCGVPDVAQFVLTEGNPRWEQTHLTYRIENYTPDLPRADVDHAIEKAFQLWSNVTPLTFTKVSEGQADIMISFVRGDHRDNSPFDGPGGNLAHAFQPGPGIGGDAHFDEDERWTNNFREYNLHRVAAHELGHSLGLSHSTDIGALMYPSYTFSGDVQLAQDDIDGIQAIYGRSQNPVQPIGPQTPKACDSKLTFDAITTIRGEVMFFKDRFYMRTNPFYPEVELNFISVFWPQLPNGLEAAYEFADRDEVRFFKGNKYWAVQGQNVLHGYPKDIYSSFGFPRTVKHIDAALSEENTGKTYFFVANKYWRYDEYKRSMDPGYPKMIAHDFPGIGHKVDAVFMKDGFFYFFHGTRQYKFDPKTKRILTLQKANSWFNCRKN

IC50 [nM]	SMILES
180	C[C@@H]1[C@H](c2ccccc2)[C@]1(NS(=O)(=O)c1ccc(-n2cc(Cl)cn2)s1)C(=O)O (racemic)

target: Disintegrin and metalloproteinase domain-containing protein 17 (Homo sapiens, UniProt P78536); assay: Inhibition of TACE; details: not given
Sequence (P78536 whole entry, the tested form may be a part): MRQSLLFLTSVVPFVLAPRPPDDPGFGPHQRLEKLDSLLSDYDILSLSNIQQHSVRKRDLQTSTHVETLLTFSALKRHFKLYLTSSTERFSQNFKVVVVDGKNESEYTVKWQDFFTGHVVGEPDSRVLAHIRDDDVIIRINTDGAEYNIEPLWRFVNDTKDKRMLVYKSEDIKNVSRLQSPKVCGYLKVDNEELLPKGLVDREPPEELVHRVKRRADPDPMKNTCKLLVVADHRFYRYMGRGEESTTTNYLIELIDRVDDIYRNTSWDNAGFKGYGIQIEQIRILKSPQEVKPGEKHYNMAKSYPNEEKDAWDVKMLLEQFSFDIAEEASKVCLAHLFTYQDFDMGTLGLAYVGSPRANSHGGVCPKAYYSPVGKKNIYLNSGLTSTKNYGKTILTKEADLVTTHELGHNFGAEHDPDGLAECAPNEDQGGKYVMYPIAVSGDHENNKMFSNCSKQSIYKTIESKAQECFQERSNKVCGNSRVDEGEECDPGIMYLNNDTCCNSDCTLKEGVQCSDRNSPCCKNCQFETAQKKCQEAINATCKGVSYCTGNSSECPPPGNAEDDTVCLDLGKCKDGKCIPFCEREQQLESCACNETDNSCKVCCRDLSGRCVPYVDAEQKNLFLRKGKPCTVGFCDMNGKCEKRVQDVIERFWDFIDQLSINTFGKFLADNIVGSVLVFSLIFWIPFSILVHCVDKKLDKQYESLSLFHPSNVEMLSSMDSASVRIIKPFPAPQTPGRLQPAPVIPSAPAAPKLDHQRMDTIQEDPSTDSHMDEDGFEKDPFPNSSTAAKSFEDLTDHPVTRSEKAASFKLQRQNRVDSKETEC

IC50 [nM]	SMILES
4000	C[C@@H]1[C@H](c2ccccc2)[C@]1(NS(=O)(=O)c1ccc(-n2cc(Cl)cn2)s1)C(=O)O (racemic)

system: not listed separately; assay: Oral bioavailability in rat; assay type: ADME, organism-based; details: in vivo

bioavailability [%]	SMILES
81	C[C@@H]1[C@H](c2ccccc2)[C@]1(NS(=O)(=O)c1ccc(-n2cc(Cl)cn2)s1)C(=O)O (racemic)

system: not listed separately; assay: Half life in rat; assay type: ADME, organism-based; details: in vivo

half-life [h]	SMILES
4.5	C[C@@H]1[C@H](c2ccccc2)[C@]1(NS(=O)(=O)c1ccc(-n2cc(Cl)cn2)s1)C(=O)O (racemic)
